US6426197B1, “Polynucleotides encoding a human potassium channel” (SmithKline Beecham, P.L.C., priority 1998, dated 2002)

Target: T1, h-TRAAK (Homo sapiens, UniProt Q9NYG8)
T1 construct: expressed in transfected cells; host or cells: HEK 293
T1 sequence (Q9NYG8 1-393): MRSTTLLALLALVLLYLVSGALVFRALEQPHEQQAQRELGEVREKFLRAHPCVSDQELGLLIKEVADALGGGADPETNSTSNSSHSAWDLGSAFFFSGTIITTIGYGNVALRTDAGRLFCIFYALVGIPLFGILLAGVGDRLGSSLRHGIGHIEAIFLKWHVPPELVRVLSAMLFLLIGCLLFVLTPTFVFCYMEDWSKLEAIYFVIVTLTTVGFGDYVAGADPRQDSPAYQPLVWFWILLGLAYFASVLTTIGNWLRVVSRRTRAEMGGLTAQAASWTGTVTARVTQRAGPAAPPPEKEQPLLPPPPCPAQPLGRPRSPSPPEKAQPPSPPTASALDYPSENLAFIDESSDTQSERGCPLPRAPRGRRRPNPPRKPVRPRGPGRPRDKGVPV
Experiment: Whole cell patch clamp recordings in HEK 293 cells transiently transfected with h-TRAAK
Format: cell-based
Excerpt: Electrophysiological Recordings in HEK293 Cells
For whole cell patch clamp recordings cells were placed on the stage of an inverted microscope and continuously superfused with a solution containing, in mM: NaCl 150, KCl 5, HEPES 10, CaCl2 1 and MgCl2 3; pH with NaOH. The patch pipette solution contained in mM: KCl 150, HEPES 10, MgCl2 3 and EGTA 5; pH7.2 with KOH. When cells were voltage clamped at a test potential of −80 mV depolarising pulses elicited rapidly activating, non-inactivating outward currents. At a test potential of +10 mV these currents were considerably greater in amplitude, 300.4 pA±92.9 (n=5) than those recorded from untransfected wild type HEK 293 cells, 94.8 pA +12.6 (n=15). h-TRAAK-mediated currents were potentiated by arachidonic acid over a voltage range from −140 to +60 mV.

CCCCC/C=C\C/C=C\C/C=C\C/C=C\CCCC(=O)O [arachidonic acid]
fold increase in h-TRAAK-mediated current (10 μM arachidonic acid, test potential of +10 mV): 7.9 ±3.0 fold | effect on h-TRAAK-mediated currents (voltage range from −140 to +60 mV): potentiated
